Laboratory results from article PMC12527922, “Cocaine chemogenetics blunts drug-seeking by synthetic physiology” (Nature, 2025).
“And” between values parts separate entries of the source, which are not always exact repeats. Equal entries are not always repeated.

Key:
[1] = biological target: coca-5HT3 (α7(L141G,G175K,Y210F,Y217F)–5HT3) (Homo sapiens, UniProt P36544, G175K/L141G/Y210F/Y217F); test: Membrane potential assay, coca-5HT3 in HEK293; conditions: for Response / Max normalized Response: coca-5HT3; for response at coca-5HT3: between 10-100 µM; for Max normalized Response: ED Fig 3b
unmodified α7–5HT3 = biological target: T1, unmodified α7–5HT3 (UniProt P23979+P36544, M226I/T225I); test: Membrane potential assay, unmodified α7–5HT3; type: cell-based, human α7 nAChR LBD, mouse 5HT3 IPD
T1 construct: expressed in transfected cells; host or cells: HEK293 (ATCC CRL-1573), pcDNA3.1

[2] = a75HT3, [Nicotine] 0.0457247 uM
[3] = coca5HT3, [Nicotine] 1.37037 uM
[4] = coca5HT3, [Nicotine] 4.11111 uM
[5] = coca5HT3, [Nicotine] 12.3333 uM

T1 sequence (P36544+P23979 fused P36544:T225I/P36544:M226I): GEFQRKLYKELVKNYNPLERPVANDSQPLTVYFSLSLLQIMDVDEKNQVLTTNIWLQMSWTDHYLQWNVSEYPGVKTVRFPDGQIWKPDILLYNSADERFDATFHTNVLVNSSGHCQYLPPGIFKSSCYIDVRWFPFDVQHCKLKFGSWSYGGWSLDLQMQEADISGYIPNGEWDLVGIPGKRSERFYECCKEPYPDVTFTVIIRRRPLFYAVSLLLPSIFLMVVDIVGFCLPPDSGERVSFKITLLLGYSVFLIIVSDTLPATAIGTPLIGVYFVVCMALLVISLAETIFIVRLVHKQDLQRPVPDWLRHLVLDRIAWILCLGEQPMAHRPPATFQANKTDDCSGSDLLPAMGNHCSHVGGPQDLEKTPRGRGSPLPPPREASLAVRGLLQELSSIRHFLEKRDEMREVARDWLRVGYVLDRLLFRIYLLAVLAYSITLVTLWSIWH
coca-5HT3 (α7(L141G,G175K,Y210F,Y217F)–5HT3), sequence (P36544 23-224 L141G/G175K/Y210F/Y217F): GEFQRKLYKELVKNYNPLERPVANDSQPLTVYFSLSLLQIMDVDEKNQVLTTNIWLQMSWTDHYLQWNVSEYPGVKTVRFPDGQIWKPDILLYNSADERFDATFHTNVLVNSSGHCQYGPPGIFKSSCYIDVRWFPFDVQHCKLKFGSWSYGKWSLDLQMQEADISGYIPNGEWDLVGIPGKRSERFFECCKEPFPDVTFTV
coca-5HT3 (α7(L141G,G175K,Y210F,Y217F)–5HT3), sequence (P23979 242-489, further chain): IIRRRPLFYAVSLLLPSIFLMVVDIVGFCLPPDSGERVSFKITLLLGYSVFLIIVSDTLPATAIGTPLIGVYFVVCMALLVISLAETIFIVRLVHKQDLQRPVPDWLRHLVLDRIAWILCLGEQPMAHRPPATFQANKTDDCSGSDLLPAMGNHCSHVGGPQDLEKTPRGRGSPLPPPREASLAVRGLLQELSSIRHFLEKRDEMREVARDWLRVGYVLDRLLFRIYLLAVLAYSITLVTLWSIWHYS

SMILES: N[C@@H](CCC(=O)O)C(=O)O [Glutmate]
- Response ([1]; conc 0.457247 uM, ED Fig 3a): 0.109
- Response ([1]; conc 1.37174 uM, ED Fig 3a): 0.069
- Response ([1]; conc 12.3457 uM, ED Fig 3a): 0
- Response ([1]; conc 37.037 uM, ED Fig 3a): 0.041
- Response ([1]; conc 111.111 uM, ED Fig 3a): 0.031
- Response ([1]; conc 333.333 uM, ED Fig 3a): 0.048
- Response ([1]; conc 1000 uM, ED Fig 3a): 0.028

SMILES: CN1[C@@H]2CC[C@H]1C[C@@H](OC(c1ccccc1)c1ccccc1)C2 [Benztropine]
- response at coca-5HT3 [1]: substantial response
- Max normalized Response ([1]; conc 0.137 uM): 0.05732
- Max normalized Response ([1]; conc 3.7 uM): 0.1399
- Max normalized Response ([1]; conc 11.1 uM): 0.2931
- Max normalized Response ([1]; conc 33.3 uM): 0.5901
- Max normalized Response ([1]; conc 100 uM): 1.051

SMILES: CN1CCC[C@H]1c1cccnc1 [nicotine]
- activity at unmutated α7–5HT3 chimeric channel (unmodified α7–5HT3): agonist
- max response of each dose-response replicate (unmodified α7–5HT3; a75HT3, Nicotine, used for normalization): 0.486 (2×) and 0.554 (2×) and 0.608 (2×)
- Max normalized response, AVG (unmodified α7–5HT3; [2]): 0.008293
- Max normalized response, replicates (unmodified α7–5HT3; [2]): 0 (2×) and 0.02166 (2×) and 0.01151 (2×)
- Response, dose-response replicates (DR 1-6) (unmodified α7–5HT3; [2]): 0 (2×) and 0.012 (2×) and 0.007 (2×)
- Max normalized response, AVG (unmodified α7–5HT3; a75HT3, [Nicotine] 0.137174 uM): 0.001891
- Max normalized response, replicates (unmodified α7–5HT3; a75HT3, [Nicotine] 0.137174 uM): 0.002058 (2×) and 0.001805 (2×) and 0.001645 (2×)
- Response, dose-response replicates (DR 1-6) (unmodified α7–5HT3; a75HT3, [Nicotine] 0.137174 uM): 0.001
- Max normalized response, AVG (unmodified α7–5HT3; a75HT3, [Nicotine] 0.411523 uM): 0.009729
- Max normalized response, replicates (unmodified α7–5HT3; a75HT3, [Nicotine] 0.411523 uM): 0.004115 (2×) and 0.03069 (2×) and 0 (2×)
- Response, dose-response replicates (DR 1-6) (unmodified α7–5HT3; a75HT3, [Nicotine] 0.411523 uM): 0.002 (2×) and 0.017 (2×) and 0 (2×)
- Max normalized response, AVG (unmodified α7–5HT3; a75HT3, [Nicotine] 1.23457 uM): 0.08187
- Max normalized response, replicates (unmodified α7–5HT3; a75HT3, [Nicotine] 1.23457 uM): 0.1152 (2×) and 0 (2×) and 0.09704 (2×)
- Response, dose-response replicates (DR 1-6) (unmodified α7–5HT3; a75HT3, [Nicotine] 1.23457 uM): 0.056 (2×) and 0 (2×) and 0.059 (2×)
- Max normalized response, AVG (unmodified α7–5HT3; a75HT3, [Nicotine] 3.7037 uM): 0.6699
- Max normalized response, replicates (unmodified α7–5HT3; a75HT3, [Nicotine] 3.7037 uM): 0.8354 (2×) and 0.4874 (2×) and 0.5214 (2×)
- Response, dose-response replicates (DR 1-6) (unmodified α7–5HT3; a75HT3, [Nicotine] 3.7037 uM): 0.406 (2×) and 0.27 (2×) and 0.317 (2×)
- Max normalized response, AVG (unmodified α7–5HT3; a75HT3, [Nicotine] 11.1111 uM): 1
- Max normalized response, replicates (unmodified α7–5HT3; a75HT3, [Nicotine] 11.1111 uM): 1
- Response, dose-response replicates (DR 1-6) (unmodified α7–5HT3; a75HT3, [Nicotine] 11.1111 uM): 0.486 (2×) and 0.554 (2×) and 0.608 (2×)
- Max normalized response, AVG (unmodified α7–5HT3; a75HT3, [Nicotine] 33.3333 uM): 0.8953
- Max normalized response, replicates (unmodified α7–5HT3; a75HT3, [Nicotine] 33.3333 uM): 0.8436 (2×) and 0.9711 (2×) and 0.9227 (2×)
- Response, dose-response replicates (DR 1-6) (unmodified α7–5HT3; a75HT3, [Nicotine] 33.3333 uM): 0.41 (2×) and 0.538 (2×) and 0.561 (2×)
- Max normalized response, AVG (unmodified α7–5HT3; a75HT3, [Nicotine] 100 uM): 0.8025
- Max normalized response, replicates (unmodified α7–5HT3; a75HT3, [Nicotine] 100 uM): 0.9585 (2×) and 0.8503 (2×) and 0.5988
- Response, dose-response replicates (DR 1-6) (unmodified α7–5HT3; a75HT3, [Nicotine] 100 uM): 0.291 and 0.531 (2×) and 0.517 (2×)
- reduced potency for coca-5HT3 versus unmutated α7–5HT3 [1]: greater than 300 fold
- max response of each dose-response replicate ([1]; coca5HT3, Nicotine, used for normalization): 0.477 and 0.607 and 0.383 and 0.555
- Max normalized response, AVG [1, 3]: 0.06271
- Max normalized response, replicates [1, 3]: 0.03243 and 0.1069 and 0.09061 and 0.02089
- Response, dose-response replicates (DR 1-4) [1, 3]: 0.051 and 0.055 and 0.008 and 0.018
- Max normalized response, AVG [1, 4]: 0.05584
- Max normalized response, replicates [1, 4]: 0.06667 and 0.05451 and 0.03954 and 0.06266
- Response, dose-response replicates (DR 1-4) [1, 4]: 0.026 and 0.024 (2×) and 0.037
- Max normalized response, AVG [1, 5]: 0.06127
- Max normalized response, replicates [1, 5]: 0.03964 and 0.07966 and 0.08402 and 0.04178
- Response, dose-response replicates (DR 1-4) [1, 5]: 0.038 and 0.051 and 0.016 and 0.022
- Max normalized response, AVG ([1]; coca5HT3, [Nicotine] 37 uM): 0.1199
- Max normalized response, replicates ([1]; coca5HT3, [Nicotine] 37 uM): 0.1225 and 0.1426 and 0.196 and 0.01828
- Response, dose-response replicates (DR 1-4) ([1]; coca5HT3, [Nicotine] 37 uM): 0.068 (2×) and 0.119 and 0.007
- Max normalized response, AVG ([1]; coca5HT3, [Nicotine] 111 uM): 0.2452
- Max normalized response, replicates ([1]; coca5HT3, [Nicotine] 111 uM): 0.3009 and 0.2537 and 0.374 and 0.05222
- Response, dose-response replicates (DR 1-4) ([1]; coca5HT3, [Nicotine] 111 uM): 0.121 and 0.227 and 0.02 and 0.167
- Max normalized response, AVG ([1]; coca5HT3, [Nicotine] 333 uM): 0.4535
- Max normalized response, replicates ([1]; coca5HT3, [Nicotine] 333 uM): 0.5495 and 0.5975 and 0.5157 and 0.1514
- Response, dose-response replicates (DR 1-4) ([1]; coca5HT3, [Nicotine] 333 uM): 0.285 and 0.313 and 0.058 and 0.305
- Max normalized response, AVG ([1]; coca5HT3, [Nicotine] 1000 uM): 0.6843
- Max normalized response, replicates ([1]; coca5HT3, [Nicotine] 1000 uM): 0.8198 and 0.7044 and 0.7249 and 0.4883
- Response, dose-response replicates (DR 1-4) ([1]; coca5HT3, [Nicotine] 1000 uM): 0.44 and 0.187 and 0.455
- Max normalized response, AVG ([1]; coca5HT3, [Nicotine] 3000 uM): 1
- Max normalized response, replicates ([1]; coca5HT3, [Nicotine] 3000 uM): 1
- Response, dose-response replicates (DR 1-4) ([1]; coca5HT3, [Nicotine] 3000 uM): 0.477 and 0.607 and 0.383 and 0.555
- Response ([1]; conc 0.0137 uM, ED Fig. 2c): 0.106
- Response ([1]; conc 0.123 uM, ED Fig. 2c): 0.216
- Response ([1]; conc 0.37 uM, ED Fig. 2c): 0.045
- Response ([1]; conc 10 uM, ED Fig. 2c): 0.163
- Response ([1]; conc 30 uM, ED Fig. 2c): 0.238

SMILES: CC(C)[N+]1(C)[C@@H]2CC[C@H]1C[C@@H](OC(=O)C(CO)c1ccccc1)C2 (stereo partly drawn) [Ipatropium]
- Max normalized Response ([1]; conc 0.137 uM): 0.03351
- Max normalized Response ([1]; conc 3.7 uM): 0.3358
- Max normalized Response ([1]; conc 11.1 uM): 0.05921
- Max normalized Response ([1]; conc 33.3 uM): 0.03979
- Max normalized Response ([1]; conc 100 uM): 0.03984

SMILES: NCCc1c[nH]cn1 [Histamine]
- Response ([1]; conc 0.457247 uM, ED Fig 3a): 0.136
- Response ([1]; conc 1.37174 uM, ED Fig 3a): 0.016
- Response ([1]; conc 12.3457 uM, ED Fig 3a): 0.035
- Response ([1]; conc 37.037 uM, ED Fig 3a): 0.028
- Response ([1]; conc 111.111 uM, ED Fig 3a): 0.056
- Response ([1]; conc 333.333 uM, ED Fig 3a): 0.051
- Response ([1]; conc 1000 uM, ED Fig 3a): 0.086

SMILES: O=C(O[C@H]1C[C@H]2CC[C@@H](C1)[N+]21CCCC1)C(O)(c1ccccc1)c1ccccc1 [Trospium]
- Max normalized Response ([1]; conc 0.137 uM): 0.127
- Max normalized Response ([1]; conc 3.7 uM): 0.2063
- Max normalized Response ([1]; conc 11.1 uM): 0.1005
- Max normalized Response ([1]; conc 33.3 uM): 0.1217
- Max normalized Response ([1]; conc 100 uM): 0.03704

SMILES: CCCC[N+]1(C)[C@@H]2C[C@@H](OC(=O)[C@H](CO)c3ccccc3)C[C@H]1[C@@H]1O[C@@H]12 (stereo partly drawn) [n-Butylscopolamine]
- Max normalized Response ([1]; conc 0.137 uM): 0.07428
- Max normalized Response ([1]; conc 3.7 uM): 0.05731
- Max normalized Response ([1]; conc 11.1 uM): 0.07366
- Max normalized Response ([1]; conc 33.3 uM): 0.04125
- Max normalized Response ([1]; conc 100 uM): 0.03532

SMILES: C[N+]1(C)[C@@H]2CC[C@H]1C[C@@H](OC(=O)C(CO)c1ccccc1)C2 (stereo partly drawn) [Methylatropine]
- response at coca-5HT3 [1]: substantial response
- Max normalized Response ([1]; conc 0.137 uM): 0.09159
- Max normalized Response ([1]; conc 3.7 uM): 0.07315
- Max normalized Response ([1]; conc 11.1 uM): 0.365
- Max normalized Response ([1]; conc 33.3 uM): 0.7258
- Max normalized Response ([1]; conc 100 uM): 0.936

SMILES: Nc1ncnc2c1ncn2[C@@H]1O[C@H](CO)[C@@H](O)[C@H]1O [adenosine]
- Response ([1]; conc 0.457247 uM, ED Fig 3a): 0.126
- Response ([1]; conc 1.37174 uM, ED Fig 3a): 0.045
- Response ([1]; conc 12.3457 uM, ED Fig 3a): 0.079
- Response ([1]; conc 37.037 uM, ED Fig 3a): 0.053

SMILES: NC[C@H](O)c1ccc(O)c(O)c1 [Norepinephrine]
- Response ([1]; conc 0.457247 uM, ED Fig 3a): 0.151
- Response ([1]; conc 1.37174 uM, ED Fig 3a): 0.081
- Response ([1]; conc 12.3457 uM, ED Fig 3a): 0.077
- Response ([1]; conc 37.037 uM, ED Fig 3a): 0.059
- Response ([1]; conc 111.111 uM, ED Fig 3a): 0.059
- Response ([1]; conc 333.333 uM, ED Fig 3a): 0.043

SMILES: CN1CC[C@]23c4c5ccc(O)c4O[C@H]2[C@@H](O)C=C[C@H]3[C@H]1C5 [morphine]
- Response ([1]; conc 0.0137 uM, ED Fig. 2c): 0.063
- Response ([1]; conc 0.123 uM, ED Fig. 2c): 0.114
- Response ([1]; conc 0.37 uM, ED Fig. 2c): 0.04
- Response ([1]; conc 10 uM, ED Fig. 2c): 0.069
- Response ([1]; conc 30 uM, ED Fig. 2c): 0.121
- activation of coca-5HT3 ([1]; membrane potential assay dose response): did not activate
